# In US12527846B2, “Immunodominant proteins and fragments in multiple sclerosis” (UNIVERSITÄT ZÜRICH, priority 2018, dated 2026):
# Ends that are not written are not given here.
# Tests used:
# [1] = test system: TCC14; assay: Cytokine secretion of TCC14 on recognition of the RASGRP2 peptide; type: cell-based, human; conditions: data not shown
# [2] = test system: TCC14; conditions: read-out: EC50 (antigen avidity); dose titration, BLS DR2b, proliferation after 72 h
# [3] = test system: TCC21.1; assay: Proliferation of TCC21.1 in response to GDP-L-fucose synthase peptides presented by autologous APCs; type: cell-based, human; conditions: 15-mer peptides overlapping by 10 AAs, presented by autologous PBMCs
# [4] = test system: TCC21.1; type: cell-based, human
# Method: TCC21.1 was then tested with the complete decapeptide positional scanning library (200 mixtures; i.e. mixtures representing the 10 positions of a 10-mer and in each of the fixed positions one of the 20 L-amino acids), presented by BCL expressing DRB1*15:01 class II molecules. A similar response pattern was obtained with IL-10 release. Next, a biometrical analysis scoring matrix was generated by assigning numerical values to the stimulatory potential of each of the 20 defined AAs in each of the ten positions of the decapeptide library as previously described (Zhao et al., 2001). Here, the values were calculated as the log base 10 of the median GM-CSF (pg/ml) secretion of three independent experiments in the presence of mixtures, minus the secretion in the absence of mixtures (FIG. 3B). Based on a model of independent contribution of individual AAs to peptide antigen recognition, the predicted stimulatory score of a given peptide is the sum of the matrix values of each AA contained in the peptide at each position (Zhao et al., 2001). […] Using the new “harmonic boost” frame 1 and frame 2 matrices, all natural overlapping 10-mers peptides derived from the UniProt human protein database were scored and ranked as schematically shown in FIG. 2. […]
# [5] = test system: TCC21.1; assay: Intracellular cytokine staining of TCC21.1 after peptide stimulation; type: cell-based, human
# Method: Next, the response of TCC21.1 to GDP-L-fucose synthase peptides presented by autologous irradiated PBMCs and BCL was characterized. GDP-L-fucose synthase peptides presented by the two types of APCs were able to induce proliferation. The functional phenotype of this response was also analyzed. […] Unexpectedly, when peptides were presented by autologous BCL, they induced higher levels of IFNγ. In addition, TCC21.1 also released GM-CSF and IL-3 in response to GDP-L-fucose synthase peptides. The release of these two cytokines seems to be a specific feature of this TCC compared with other Th1, Th1* or Th1/2 TLCs that were generated from patients with different conditions. Intracellular cytokine staining confirmed the Th2 functional phenotype of TCC21.1 in response to GDP-L-fucose synthase (96-105, SEQ ID NO: 16). More than 60% of TCC21.1 cells were IL-4+ after stimulation with GDP-L-fucose synthase (96-105, SEQ ID NO: 16), while only around 12% were IFNγ+. Around 60% of the cells were GM-CSF+ and 47.7% of these also IL-4+.
# For intracellular cytokine staining, TCC21.1 was analyzed 48 h after stimulation. After 5 h in presence of GolgiStop protein transport inhibitor (BD Biosciences), T cells were labeled with Live/Dead® Aqua (Invitrogen). Following fixation and permeabilization with Cytofix/Cytoperm (BD Biosciences), cells were stained with antibodies against CD4 (APC-Cy7, Biolegend), IFN-γ (FITC, Biolegend), IL-4 (PE, BD Bioscience), GM-CSF (APC, Biolegend) and IL-3 (PE, Biolegend) in PBS containing saponin and BSA, and analyzed by flow cytometry.
sequence,measurement,setting,value
"LVRYWISAFP [SEQ ID NO: 33, LVRYWISAFP]",cytokine secretion by TCC14,[1],secretion of Th2 cytokines and also of IFN-γ
same,EC50,[2],12 nM
NVLHSAFEVGARKVV (listed as Homo sapiens) [SEQ ID NO: 17],recognition by TCC21.1 (proliferation),[3],recognized
"NVLHSAFEVG [SEQ ID NO: 16, NVLHSAFEVG]",EC50,[4],0.2 µg/mL
same,GM-CSF+ TCC21.1 cells also IL-4+,[5],47.7%
same,TCC21.1 cells GM-CSF+,[5],Around 60%
same,TCC21.1 cells IFNγ+,[5],around 12%
same,TCC21.1 cells IL-4+,[5],More than 60%
VLHSAFEVGA (listed as Homo sapiens) [SEQ ID NO: 18],GM-CSF release by TCC21.1 (stimulatory capacity),"[4]; individual decapeptides at 5 pg/ml, presented by BLS cells expressing DRB1*15:01",induced GM-CSF release
VHMNDNVLHSAFEVG (listed as Homo sapiens) [SEQ ID NO: 14],recognition by TCC21.1 (proliferation),[3],recognized
